We go through 5 compounds from PubChem BioAssay (NCI).

Among the test systems are 786-0 renal; CAKI-1 renal; HCT-116 colon; HL-60(TB) leukemia; HOP-62 NSCLC; HOP-92 NSCLC; HT29 colon; MALME-3M melanoma; MCF7 breast; MDA-MB-435; NCI-H226 lung; NCI-H23 lung; OVCAR-5 ovarian; OVCAR-8 ovarian; RPMI-8226 leukemia; SK-MEL-5 melanoma; SK-OV-3 ovarian; SNB-19 CNS; T-47D breast; UO-31 renal.
What all share (test): inhibition of tumour cell growth, NCI panel, 48 h

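How tested: cells in 96-well plates exposed to compound for 48 hours at five concentrations. TGI is the concentration that stops growth completely.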

In the case of `CN1C(=O)C23CCCCC2CC1(c1ccccc1)S3` (stereo not given), the TGI with 786-0 renal, in the assay with CAKI-1 renal, in the assay on HCT-116 colon, with HL-60(TB) leukemia, in the assay on HOP-62 NSCLC and in the assay with HOP-92 NSCLC was above 100 µM each time. The TGI in the assay on HT29 colon, with MALME-3M melanoma, in the assay on MCF7 breast, in the assay on MDA-MB-435, in the assay on NCI-H226 lung and in the assay with NCI-H23 lung was above 100 µM in each case. The TGI with OVCAR-5 ovarian, in the assay with OVCAR-8 ovarian, with RPMI-8226 leukemia, with SK-MEL-5 melanoma, with SK-OV-3 ovarian and in the assay on SNB-19 CNS was above 100 µM each time. In addition, the TGI with T-47D breast and in the assay on UO-31 renal was above 100 µM in each case.

For `CC(Oc1ccccc1Cl)C(=O)NN1C(=O)CSC1c1ccc(Cl)cc1` (stereo not given), the TGI was determined as 28.6 µM with 786-0 renal; 56.4 µM in the assay on CAKI-1 renal; 29.3 µM in the assay on HCT-116 colon; 23.5 µM with HL-60(TB) leukemia; 36.4 µM with HOP-62 NSCLC; 40.7 µM in the assay on HOP-92 NSCLC. In addition, the TGI in the assay on HT29 colon is 39.5 µM; in the assay on MALME-3M melanoma, 93.4 µM; in the assay with MCF7 breast, 35.7 µM; in the assay on MDA-MB-435, 31.1 µM; in the assay on NCI-H226 lung it was 35.3 µM; in the assay with NCI-H23 lung it was 39.2 µM. Further, the TGI in the assay with OVCAR-5 ovarian worked out at 48 µM; with OVCAR-8 ovarian, 56.5 µM; in the assay with RPMI-8226 leukemia, 38.4 µM; with SK-MEL-5 melanoma, 31.7 µM; in the assay on SK-OV-3 ovarian, 39.7 µM; in the assay with SNB-19 CNS, 50.2 µM. The results for the TGI in the assay with T-47D breast and in the assay on UO-31 renal were 52.1 µM and above 100 µM, respectively.

Take `O=C(Nn1cnn2c(=O)c3ccccc3nc2c1=O)c1ccccc1`: the TGI in the assay with 786-0 renal, with CAKI-1 renal, with HCT-116 colon, in the assay with HL-60(TB) leukemia, in the assay with HOP-62 NSCLC and in the assay on HOP-92 NSCLC was above 100 µM throughout. For the same compound, the TGI in the assay with HT29 colon, with MALME-3M melanoma, with MCF7 breast, in the assay with MDA-MB-435, in the assay with NCI-H226 lung and with NCI-H23 lung was above 100 µM throughout. In addition, the TGI with OVCAR-5 ovarian, in the assay with OVCAR-8 ovarian, with RPMI-8226 leukemia, in the assay with SK-MEL-5 melanoma, in the assay with SK-OV-3 ovarian and with SNB-19 CNS was above 100 µM each time. Moreover, the TGI in the assay with T-47D breast and with UO-31 renal was above 100 µM throughout.

For `CC(=O)Oc1c(C)c2c(c3ccccc13)OC(C)(C)C2`, the TGI in the assay with 786-0 renal turned out to be 34.3 µM; with CAKI-1 renal, 40.3 µM; in the assay on HCT-116 colon, 42.9 µM; in the assay on HL-60(TB) leukemia it was 69.6 µM; with HOP-62 NSCLC it was 34.5 µM; in the assay on HOP-92 NSCLC, 31.9 µM. Further, the TGI is 35 µM in the assay on HT29 colon; 30 µM with MALME-3M melanoma; 35.4 µM in the assay on MCF7 breast; 33.2 µM in the assay on MDA-MB-435; 40.7 µM in the assay with NCI-H226 lung; 28 µM in the assay on NCI-H23 lung. In addition, the TGI worked out at 34.4 µM with OVCAR-5 ovarian; 32.5 µM in the assay with OVCAR-8 ovarian; 39.1 µM in the assay on RPMI-8226 leukemia; 22.9 µM in the assay with SK-MEL-5 melanoma; 66.3 µM in the assay on SK-OV-3 ovarian; 69.7 µM in the assay on SNB-19 CNS. Moreover, the TGI in the assay on T-47D breast came to 60 µM; in the assay with UO-31 renal it was 33.1 µM.

As to `O=C(CN(c1ccc(S(=O)(=O)O)cc1)c1ccc(S(=O)(=O)O)cc1)Nn1cnc2ccc(S(=O)(=O)N(c3ccc(S(=O)(=O)O)cc3)c3ccc(S(=O)(=O)O)cc3)cc2c1=O`, the TGI in the assay on 786-0 renal, with CAKI-1 renal, in the assay on HCT-116 colon, in the assay on HL-60(TB) leukemia, with HOP-62 NSCLC and with HOP-92 NSCLC was above 100 µM in each case. Further, the TGI in the assay on HT29 colon, with MALME-3M melanoma, in the assay on MCF7 breast, with MDA-MB-435, in the assay on NCI-H226 lung and in the assay on NCI-H23 lung was above 100 µM each time. The TGI in the assay with OVCAR-5 ovarian, in the assay with OVCAR-8 ovarian, in the assay on RPMI-8226 leukemia, in the assay on SK-MEL-5 melanoma, with SK-OV-3 ovarian and in the assay on SNB-19 CNS was above 100 µM throughout. Moreover, the TGI with T-47D breast and with UO-31 renal was above 100 µM throughout.
